# Results as given in PMC9237960, “Identification of a New Antifungal Peptide W1 From a Marine Bacillus amyloliquefaciens Reveals Its Potential in Controlling Fungal Plant Diseases” (Frontiers in Microbiology, 2022).
# Peptide text beside a SMILES is read from it.
# System: F. oxysporum
# Assay type: cell-based, Fusarium oxysporum
# Conditions: pH 9.73
# Description: The minimum inhibitory concentration (MIC) of W1 against F. oxysporum and S. sclerotiorum was determined using the paper disk diffusion method ([Wen et al., 2014]; [Rao et al., 2015]). In brief, the purified W1 was diluted into 20 mM piperazine buffer (pH 9.73) with final concentrations of 0.464, 0.232, 0.116, 0.058, and 0.029 μg/μl, respectively. On paper disks placed 2 cm from the hyphal margin of fungus on a PDA plate, 60 μl of serially diluted samples were added. Later, the plate was incubated at 30°C for 24–48 h. The MIC was determined as the lowest concentration of W1 that could inhibit visible mold growth and was calculated as the total peptide concentration added to each paper disk (microgram per disk). The piperazine buffer (20 mM) was used as the blank control. All assays were repeated three times independently.
smiles,measurement,value
CC[C@H](C)[C@H](NC(=O)[C@H](CC(C)C)NC(=O)[C@H](CC(C)C)NC(=O)[C@H](Cc1ccccc1)NC(=O)[C@H](Cc1ccc(O)cc1)NC(=O)[C@H](CC(C)C)NC(=O)[C@@H](NC(=O)[C@H](C)NC(=O)[C@H](Cc1ccccc1)NC(=O)[C@H](CCSC)NC(=O)[C@H](CC(C)C)NC(=O)[C@@H](NC(=O)[C@@H](NC(=O)[C@@H]1CCCN1C(=O)[C@@H](NC(=O)[C@@H](NC(=O)[C@@H](NC(=O)CN)[C@@H](C)O)[C@@H](C)CC)C(C)C)[C@@H](C)CC)[C@@H](C)CC)C(C)C)C(=O)N[C@@H](CCCNC(=N)N)C(=O)N1CCC[C@H]1C(=O)N[C@@H](CCC(N)=O)C(=O)O [W1] (H-GTIVPIILMFAVLYFLLIRPQ-OH),MIC against F. oxysporum,58 µg/mL
